Measurements from patent US11492359B2, “Near-infrared nerve-sparing fluorophores” (OREGON HEALTH & SCIENCE UNIVERSITY, priority 2018, dated 2022).

Legend:
[1] = tested on: murine brachial plexus and sciatic nerves; assay: Nerve-specificity screening using direct/topical administration; type: in vivo, mouse; settings: for nerve specificity (N/M contrast vs control group) via direct administration: 125 μM, imaged 30 minutes after staining; for N/M and N/A ratios vs unstained control animals: direct administration
Procedure: (§1) All reagents were purchased from Sigma Aldrich, Fisher Scientific, TCI, or Ark Pharm. Unless otherwise indicated, all commercially available starting materials were used directly without further purification. Analytical thin layer chromatography (TLC) was performed on Millipore ready-to-use plates with silica gel 60 (F254, 32-63 μm). Flash chromatography was performed on Sorbent Technologies silica gel for column chromatography or on a Biotage Isolera Flash System using SNAP Ultra cartridges. High-resolution mass spectra (HRMS) were measured on a ThermoElectron LTQ-Orbitrap high resolution mass spectrometer with a dedicated Accela HPLC system, or an Agilent 6244 time-of-flight LCMS with diode array detector VL+. LCMS and Purity Characterization Mass-to-charge ratio and purity of the Oxazine compounds were characterized on an Agilent 6244 time-of-flight tandem liquid chromatography mass spectroscopy (LCMS) with diode array detector VL+. Sample (10 μL) was injected into a C18 column (Poroshell 120, 4.6×50 mm, 2.7 micron), and eluted with a solvent system of A (H2O, 0.1% FA) and B (MeCN, 01.% FA) at 0.4 mL/min, from A/B=90/10 to 5/95 over 10 min, maintained at A/B=5/95 for additional 5 min. Ions were detected in positive ion mode by setting the capillary voltage at 4 kV and gas temperature at 350° C. Purity was calculated through area under the curve analysis of the absorbance at 254 nm. UV-Vis Absorption and Fluorescence Spectroscopy. UV-Vis spectra were collected with a Cary 50 UV-Vis spectrophotometer at room temperature, using a 1-cm quartz cuvette. Fluorescence spectra were collected on a Cary Eclipse fluorescence spectrophotometer (Agilent Technologies). All absorbance spectra were reference corrected. Extinction coefficient was calculated from Beer's Law plots of absorbance versus concentration. Fluorescence spectra were corrected for the wavelength dependent response of the R928 photomultiplier tube using a manufacturer generated correction file. Relative quantum yields are reported as the average of multiple measurements using multiple references, including Oxazine 1, Oxazine 170, and Rhodamine 101. Physicochemical Property Calculation. Physicochemical partition coefficients (Log D) values at pH 7.4, number of hydrogen bond donors and acceptors, polar surface area, and the number of rotatable bonds were calculated using Marvin and JChem calculator plugins (ChemAxon, Budapest, Hungary). Nerve-Specificity Screening using Direct/Topical Administration Each compound was screened for its tissue-specificity using a previously published direct/topical administration strategy in murine brachial plexus and sciatic nerves.^1 Each compound from the Oxazine library was formulated in the previously utilized co-solvent formulation (10% DMSO, 5% Kolliphor, 65% serum and 20% phosphate buffered saline) at 125 μM. 100 μL of the formulated Oxazine were incubated on the exposed brachial plexus or sciatic nerve for 5 minutes. The fluorophore containing solution was removed and the area was irrigated with saline 18 times to remove any unbound fluorophore. Co-registered fluorescence and color images were collected of each stained area 30 minutes after Oxazine direct/topical administration using a custom built macroscopic imaging system with 620/60 nm excitation and 700/75 nm bandpass emission filters. Custom written MatLab code was used to analyze the tissue specific fluorescence where regions of interest were selected on the nerve, muscle and adipose tissue using the white light images. These regions of interest were then analyzed on the co-registered matched fluorescence images permitting assessment of the nerve to muscle and nerve to adipose ratios in blinded manner. […]

[2] = UV-Vis absorption and fluorescence spectroscopy of the Oxazine library; type: physicochemical; settings: for Extinction coefficient: Beer's Law plots; for Quantum yield: relative, references Oxazine 1, Oxazine 170, Rhodamine 101
Procedure: as §1

[3] = tested on: murine brachial plexus and sciatic nerves; assay: Nerve-specificity screening using systemic administration; type: in vivo; settings: for nerve specificity / nerve contrast (N/M vs control group) following systemic administration: 200 nmol, 4 hours prior to imaging; for N/M and N/A ratios vs unstained control animals: systemic administration

| Structure (SMILES) | nerve specificity (N/M contrast vs control group) via direct administration [1] | Max Abs [2] [nm] | Max Em [2] [nm] | Max Ex [2] [nm] | Extinction coefficient [2] [M⁻¹ cm⁻¹] | Quantum yield [2] [%] | nerve specificity / nerve contrast (N/M vs control group) following systemic administration ([3]; IV) | toxicity upon systemic administration ([3]; IV, mice) | N/M and N/A ratios vs unstained control animals [1] | N/M and N/A ratios vs unstained control animals [3] |
| --- | --- | --- | --- | --- | --- | --- | --- | --- | --- | --- |
| CC/N=c1\ccc2nc3ccc(NCC)cc3oc-2c1 [LGW01-21, (E)-N-(7-(ethylamino)-3H-phenoxazin-3-ylidene)ethanaminium] | positive nerve specificity | 617 | 634 | 620 | 28745 | 30.12 | negative for nerve contrast |  |  |  |
| CC/N=c1/cc2oc3cc(N(CC)CC)c(C)cc3nc-2cc1C [LGW01-23, (Z)—N-(7-(diethylamino)-2,8-dimethyl-3H-phenoxazin-3-ylidene)ethanaminium] | positive nerve specificity | 645 | 635 | 620 | 62445 | 0.67 | negative for nerve contrast |  |  |  |
| CCC/N=c1/cc2oc3cc(NCCC)c(C)cc3nc-2cc1C [LGW01-64, (Z)—N-(2,8-dimethyl-7-(propylamino)-3H-phenoxazin-3-ylidene)propan-1-aminium] | positive nerve specificity | 620 | 638 | 620 | 50166 | 42.15 | negative for nerve contrast | toxic upon systemic administration |  |  |
| CC/N=c1/cc2oc3cc(NCC)cc(C)c3nc-2c(C)c1 [LGW02-95, (E)-N-(7-(ethylamino)-1,9-dimethyl-3H-phenoxazin-3-ylidene)ethanaminium] | positive nerve specificity | 606 | 627 | 605 | 48653 | 32.50 | negative for nerve contrast |  |  |  |
| CC1=CC(C)(C)Nc2cc3c(cc21)N=c1cc2c(cc1O3)=NC(C)(C)C=C2C [LGW03-01, 2,2,4,8,10,10-hexamethyl-10,11-dihydro-2H-dipyrido[3,2-b:2′,3′-i]phenoxazin-1-ium] | positive nerve specificity | 677 | 695 | 680 | 44453 | 17.27 | negative for nerve contrast |  |  |  |
| CC[N+](CC)=c1ccc2nc3ccc(N4CCCC4)cc3oc-2c1 [LGW03-07, N-ethyl-N-(7-(pyrrolidin-1-yl)-3H-phenoxazin-3-ylidene)ethanaminium] | negative nerve specificity | 654 | 672 | 660 | 52356 | 9.28 | positive |  |  |  |
| CCN(CC)c1cc2oc3cc(=[N+](CC)CC)ccc-3nc2cc1C [LGW03-23, N-(7-(diethylamino)-8-methyl-3H-phenoxazin-3-ylidene)-N-ethylethanaminium] | positive nerve specificity | 664 | 690 | 645 | 23099 | 1.53 | negative for nerve contrast |  |  |  |
| CC[N+](CC)=c1ccc2nc3cc4c(cc3oc-2c1)NCCO4 [LGW03-37, N-(3,4-dihydro-[1,4]oxazino[2,3-b]phenoxazin-8(2H)-ylidene)-N-ethylethanaminium] | positive nerve specificity | 646 | 670 | 650 | 48849 | 4.34 | negative for nerve contrast |  |  |  |
| CC/N=c1/cc2oc3cc4c(cc3nc-2cc1C)C(C)=CC(C)(C)N4CC [LGW03-57, (Z)—N-(1-ethyl-2,2,4,8-tetramethyl-1,2-dihydro-9H-pyrido[3,2-b]phenoxazin-9-ylidene)ethanaminium] | positive nerve specificity | 661 | 680 | 665 | 54072 | 18.17 | negative for nerve contrast |  |  |  |
| CC[N+](CC)=c1ccc2nc3ccc(N(C)C)cc3oc-2c1 [LGW03-76, N-(7-(dimethylamino)-3H-phenoxazin-3-ylidene)-N-ethylethanaminium] | high nerve specificity | 654 | 669 | 655 | 66111 | 7.99 | high nerve specificity |  | significantly higher N/M and N/A ratios than unstained control animals | significantly higher N/M and N/A ratios than unstained control animals |
| CCCNc1cc2oc3cc(=[N+](CC)CC)ccc-3nc2cc1C [LGW04-31, N-ethyl-N-(8-methyl-7-(propylamino)-3H-phenoxazin-3-ylidene)ethanaminium] | high nerve specificity | 641 | 661 | 640 | 59586 | 5.01 | high nerve specificity |  | significantly higher N/M and N/A ratios than unstained control animals | significantly higher N/M and N/A ratios than unstained control animals |
| CCN1CCc2cc3nc4ccc(=[N+](CC)CC)cc-4oc3cc21 [LGW05-84, N-ethyl-N-(1-ethyl-2,3-dihydropyrrolo[3,2-b]phenoxazin-8(1H)-ylidene)ethanaminium] | negative nerve specificity | 643 | 675 | 650 | 46048 | 4.85 | positive |  |  |  |
| CC/N=c1/cc2oc3cc4c(cc3nc-2cc1C)CCN4 [LGW05-85, (Z)—N-(7-methyl-2,3-dihydropyrrolo[3,2-b]phenoxazin-8(1H)-ylidene)ethanaminium] | positive nerve specificity | 613 | 640 | 615 | 45382 | 41.05 | negative for nerve contrast |  |  |  |
